Experimental data: ChEMBL document CHEMBL5385844, “Discovery of novel imidazole chemotypes as isoform-selective JNK3 inhibitors for the treatment of Alzheimer's disease” (Eur J Med Chem, 2023)

Tests used:
[1] = Brain to Plasma ratio in Sprague-Dawley rat at 30 mg/kg, po measured at Tmax; assay type: ADME, organism-based; details: read-out: BPR
[2] = Toxicity in APP/PS1 mouse assessed as abnormal symptoms at 10 mg/kg, po treated 3 times/week for 1 month; assay type: organism-based; details: in vivo, 730 h, time 1 months
[3] = Half life in Sprague-Dawley rat at 1 mg/kg, iv measured upto 24 hrs by UPLC analysis; assay type: ADME, organism-based; details: in vivo
[4] = system: Mus musculus; assay: Anti-alzheimer activity against homozygous 3 x Tg mouse model assessed as escape latency time at 30 mg/kg, po administered daily for 2 months and measured after 60 days of treatment by Passive avoidance test (reference value: 43.44 +/- 7.35 sec); assay type: functional; details: 1460 h
[5] = molecular target: Mitogen-activated protein kinase 8 (Homo sapiens, UniProt P45983); assay: Inhibition of human JNK1 incubated for 40 mins in presence of ATP and [gamma33P-ATP] by scintillation counting method
[6] = molecular target: Mitogen-activated protein kinase 11 (Homo sapiens, UniProt Q15759); assay: Inhibition of human SAPK2b assessed as incorporation of 33P-ATP
[7] = Toxicity in APP/PS1 mouse assessed as abnormal symptoms at 30 mg/kg, po treated 3 times/week for 1 month; assay type: organism-based; details: in vivo, 730 h, time 1 months
[8] = system: Mus musculus; assay: Anti-alzheimer activity against homozygous 3 x Tg mouse model assessed as time spent in platform quadrant at 30 mg/kg, po administered daily for 2 months and measured after 27 days of treatment by Morris water maze test (reference value: 15.68 +/- 1.65 sec); assay type: functional; details: 1460 h
[9] = Tmax in Sprague-Dawley rat at 3 mg/kg, po measured upto 24 hrs by UPLC analysis; assay type: ADME, organism-based; details: in vivo
[10] = system: Mus musculus; assay: Anti-alzheimer activity against APP/PS1 dE9 double transgenic mouse model assessed as escape latency time at 30 mg/kg, po administered 3 times/week for 1 month and measured after 27 days of treatment by Passive avoidance test (reference value: 18.5 +/- 2.3 sec); assay type: functional; details: time 27 day
[11] = system: Mus musculus; assay: Anti-alzheimer activity against homozygous 3 x Tg mouse model assessed as escape latency time at 60 mg/kg, po administered daily for 2 months and measured after 60 days of treatment by Passive avoidance test (reference value: 43.44 +/- 7.35 sec); assay type: functional; details: 1460 h
[12] = system: Cortical neurone; assay: Neuroprotective activity against Amyloid beta (1 to 42)-induced toxicity in rat cortical neuron assessed as cell viability at 20 uM measured after 24 hrs by MTT assay; assay type: functional; details: read-out: Activity
[13] = Inhibition of human SAPK2a T106 mutant assessed as incorporation of 33P-ATP
[14] = Permeability of the compound by PAMPA-BBB assay; assay type: ADME; details: read-out: permeability
[15] = system: Mus musculus; assay: Anti-alzheimer activity against APP/PS1 dE9 double transgenic mouse model assessed as time spent in platform quadrant at 30 mg/kg, po administered 3 times/week for 1 month and measured after 40 to 45 days of treatment by Morris water maze test (reference value: 11.06 +/- 1.53 %); assay type: functional; details: time 27 day
[16] = AUC in Sprague-Dawley rat at 3 mg/kg, po measured upto 24 hrs by UPLC analysis; assay type: ADME, organism-based; set-up: time < 24 hrs, dose 3 mg/kg, route po; details: in vivo
[17] = Apparent permeability across apical to basolateral side in human Caco-2 cells at 10 uM incubated for 1 hr by LC-MS/MS analysis; assay type: ADME, cell-based
[18] = Toxicity in APP/PS1 mouse assessed as weight change at 30 mg/kg, po treated 3 times/week for 1 month; assay type: organism-based; details: in vivo, 730 h, time 1 months
[19] = Toxicity in APP/PS1 mouse assessed as dead animal at 10 mg/kg, po treated 3 times/week for 1 month; assay type: organism-based; details: in vivo, 730 h, time 1 months
[20] = molecular target: Glycogen synthase kinase-3 beta (Homo sapiens, UniProt P49841); assay: Inhibition of human GSK3beta assessed as incorporation of 33P-ATP
[21] = system: Mus musculus; assay: Anti-alzheimer activity against APP/PS1 dE9 double transgenic mouse model assessed as spontaneous alteration at 30 mg/kg, po administered 3 times/week for 1 month and measured after 27 days of treatment by Y-maze test (reference value: 46.70 +/- 3.32%); assay type: functional; details: time 1 months, 730 h
[22] = molecular target: Glycogen synthase kinase-3 alpha (Homo sapiens, UniProt P49840); assay: Inhibition of human GSK3alpha assessed as incorporation of 33P-ATP
[23] = system: Mus musculus; assay: Anti-alzheimer activity against APP/PS1 dE9 double transgenic mouse model assessed as time spent in platform quadrant at 10 mg/kg, po administered 3 times/week for 1 month and measured after 40 to 45 days of treatment by Morris water maze test (reference value: 11.06 +/- 1.53 %); assay type: functional; details: time 27 day
[24] = system: Mus musculus; assay: Anti-alzheimer activity against homozygous 3 x Tg mouse model assessed as spontaneous alteration at 60 mg/kg, po administered daily for 2 month and measured after 57 days of treatment by Y-maze test (reference value: 46.81 +/- 2.76%); assay type: functional; details: time 2 months, 1460 h
[25] = Oral bioavailability in Sprague-Dawley rat at 3 mg/kg measured upto 24 hrs by UPLC analysis; assay type: ADME, organism-based; details: in vivo
[26] = Efflux ratio of apparent permeability basolateral to apical side over apical to basolateral side in human Caco-2 cells at 10 uM incubated for 1 hr by LC-MS/MS analysis; assay type: ADME, cell-based
[27] = Toxicity in APP/PS1 mouse assessed as dead animal at 30 mg/kg, po treated 3 times/week for 1 month; assay type: organism-based; details: in vivo, 730 h, time 1 months
[28] = molecular target: Mitogen-activated protein kinase 10 (Homo sapiens, UniProt P53779); assay: Inhibition of human JNK3 incubated for 40 mins in presence of ATP and [gamma33P-ATP] by scintillation counting method; details: read-out: IC50
[29] = molecular target: T1, Dual specificity mitogen-activated protein kinase kinase 6 (Homo sapiens, UniProt P52564); assay: Inhibition of MKK6 (unknown origin) assessed as incorporation of 33P-ATP
T1 sequence (P52564 whole entry): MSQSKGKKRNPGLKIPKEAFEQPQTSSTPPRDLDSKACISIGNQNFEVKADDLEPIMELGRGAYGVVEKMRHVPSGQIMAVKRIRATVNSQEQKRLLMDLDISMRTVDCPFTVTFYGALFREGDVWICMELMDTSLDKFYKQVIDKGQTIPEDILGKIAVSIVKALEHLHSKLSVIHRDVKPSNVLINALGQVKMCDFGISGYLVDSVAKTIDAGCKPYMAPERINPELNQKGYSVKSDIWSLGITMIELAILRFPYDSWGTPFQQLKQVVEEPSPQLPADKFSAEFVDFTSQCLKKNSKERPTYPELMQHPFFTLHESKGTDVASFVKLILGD

[30] = system: Mus musculus; assay: Anti-alzheimer activity against homozygous 3 x Tg mouse model assessed as time spent in platform quadrant at 60 mg/kg, po administered daily for 2 months and measured after 27 days of treatment by Morris water maze test (reference value: 15.68 +/- 1.65 sec); assay type: functional; details: 1460 h
[31] = system: Mus musculus; assay: Anti-alzheimer activity against APP/PS1 dE9 double transgenic mouse model assessed as escape latency time at 10 mg/kg, po administered 3 times/week for 1 month and measured after 27 days of treatment by Passive avoidance test (reference value: 18.5 +/- 2.3 sec); assay type: functional; details: time 27 day
[32] = Cmax in Sprague-Dawley rat at 3 mg/kg, po measured upto 24 hrs by UPLC analysis; assay type: ADME, organism-based; set-up: dose 3 mg/kg, time < 24 hrs, route po; details: in vivo

Sequence of Glycogen synthase kinase-3 beta (P49841 whole entry): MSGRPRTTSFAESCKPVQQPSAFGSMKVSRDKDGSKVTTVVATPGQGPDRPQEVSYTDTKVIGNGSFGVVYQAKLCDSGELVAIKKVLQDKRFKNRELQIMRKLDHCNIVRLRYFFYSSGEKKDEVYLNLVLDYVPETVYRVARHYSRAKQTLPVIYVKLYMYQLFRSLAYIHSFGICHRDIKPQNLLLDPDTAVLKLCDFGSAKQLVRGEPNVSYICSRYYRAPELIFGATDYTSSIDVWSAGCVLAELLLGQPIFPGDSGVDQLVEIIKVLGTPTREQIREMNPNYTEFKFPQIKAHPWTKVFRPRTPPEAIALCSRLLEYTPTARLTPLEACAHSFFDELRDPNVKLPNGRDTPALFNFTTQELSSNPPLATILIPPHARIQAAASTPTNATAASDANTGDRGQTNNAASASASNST
Sequence of Mitogen-activated protein kinase 10 (P53779 whole entry): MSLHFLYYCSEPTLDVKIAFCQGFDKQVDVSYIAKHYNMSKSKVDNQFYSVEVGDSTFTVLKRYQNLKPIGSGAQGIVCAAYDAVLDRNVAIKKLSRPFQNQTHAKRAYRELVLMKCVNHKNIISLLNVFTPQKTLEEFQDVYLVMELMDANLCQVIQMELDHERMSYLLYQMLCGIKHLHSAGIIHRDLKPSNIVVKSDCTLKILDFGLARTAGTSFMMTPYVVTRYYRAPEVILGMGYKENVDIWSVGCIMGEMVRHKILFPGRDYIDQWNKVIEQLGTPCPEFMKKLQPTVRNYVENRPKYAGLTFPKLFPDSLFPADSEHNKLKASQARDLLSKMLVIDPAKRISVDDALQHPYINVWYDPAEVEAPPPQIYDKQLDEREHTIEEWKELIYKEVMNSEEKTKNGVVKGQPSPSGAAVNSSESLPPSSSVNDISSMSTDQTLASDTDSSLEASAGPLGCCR
Sequence of Mitogen-activated protein kinase 11 (Q15759 whole entry): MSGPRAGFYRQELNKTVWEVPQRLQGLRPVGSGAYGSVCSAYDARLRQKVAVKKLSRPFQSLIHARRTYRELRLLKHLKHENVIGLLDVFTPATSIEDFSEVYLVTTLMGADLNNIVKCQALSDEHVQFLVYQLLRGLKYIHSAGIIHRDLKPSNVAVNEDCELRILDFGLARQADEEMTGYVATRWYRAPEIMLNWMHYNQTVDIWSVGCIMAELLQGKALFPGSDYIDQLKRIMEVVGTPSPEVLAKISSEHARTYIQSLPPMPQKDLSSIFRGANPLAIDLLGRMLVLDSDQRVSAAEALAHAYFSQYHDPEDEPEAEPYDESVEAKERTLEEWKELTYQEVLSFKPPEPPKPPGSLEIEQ
Sequence of Mitogen-activated protein kinase 8 (P45983 whole entry): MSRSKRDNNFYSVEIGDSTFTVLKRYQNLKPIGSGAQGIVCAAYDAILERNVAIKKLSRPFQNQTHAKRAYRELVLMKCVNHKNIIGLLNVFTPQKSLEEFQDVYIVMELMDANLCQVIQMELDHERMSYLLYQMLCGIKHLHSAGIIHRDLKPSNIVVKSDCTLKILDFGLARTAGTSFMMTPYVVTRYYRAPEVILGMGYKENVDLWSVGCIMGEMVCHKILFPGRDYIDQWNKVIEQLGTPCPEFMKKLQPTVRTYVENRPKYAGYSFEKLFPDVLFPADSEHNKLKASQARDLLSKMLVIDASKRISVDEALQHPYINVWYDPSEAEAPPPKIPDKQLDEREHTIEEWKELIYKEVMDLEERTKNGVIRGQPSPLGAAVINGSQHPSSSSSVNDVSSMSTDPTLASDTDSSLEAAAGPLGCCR
Sequence of Glycogen synthase kinase-3 alpha (P49840 whole entry): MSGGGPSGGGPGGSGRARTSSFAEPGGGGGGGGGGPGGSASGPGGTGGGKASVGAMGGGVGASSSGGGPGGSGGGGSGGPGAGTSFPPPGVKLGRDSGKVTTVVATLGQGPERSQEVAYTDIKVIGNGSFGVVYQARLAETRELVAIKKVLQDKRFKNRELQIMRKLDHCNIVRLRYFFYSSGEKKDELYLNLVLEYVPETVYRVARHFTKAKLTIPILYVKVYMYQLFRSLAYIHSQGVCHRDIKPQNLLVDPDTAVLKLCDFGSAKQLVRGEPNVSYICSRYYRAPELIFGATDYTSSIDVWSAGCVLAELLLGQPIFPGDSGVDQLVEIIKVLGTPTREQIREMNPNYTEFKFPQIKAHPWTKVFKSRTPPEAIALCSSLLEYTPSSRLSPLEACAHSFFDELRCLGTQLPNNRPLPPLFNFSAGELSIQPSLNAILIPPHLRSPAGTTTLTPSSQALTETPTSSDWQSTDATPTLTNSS

Question: Which results are given for `N#CCc1cnc(-c2ccc3ccccc3c2)n1-c1ccnc(N[C@H]2CCCN(C(=O)C3CC3)C2)n1`?
Answer: Kp [1]: 0.02; Activity [2]: Non-Toxic; half-life [3]: 13.2 min; Time [4]: 54.09 s; IC50 [5]: 0.298 µM; IC50 [6]: 0.28 µM; Activity [7]: Non-Toxic; Time [8]: 13.24 s; Tmax [9]: 37.8 min; Time [10]: 49.5 s; Time [11]: 59.82 s; viability at 20 µM [12]: 72.6%; IC50 [13]: 1.19 µM; Papp [14]: 28.5 ×10⁻⁶ cm/s; Time [15]: 15.06 s; AUC at 24 h [16]: 338 ng·h/mL; Papp A→B at 1 h, 10 µM [17]: 13.7 ×10⁻⁶ cm/s; Activity [18]: Non-Toxic; Activity [19]: Non-Toxic; IC50 [20]: 11.7 µM; Activity [21]: 56.12%; IC50 [22]: 5.78 µM; Time [23]: 10.53 s; Activity [24]: 56.55%; bioavailability [25]: 15.7%; efflux ratio at 1 h, 10 µM [26]: 1.92; Activity [27]: Non-Toxic; IC50 [28]: 0.001 µM; IC50 [29]: 15.1 µM; Time [30]: 15.55 s; Time [31]: 31.7 s; Cmax [32]: 378 ng/mL
